Reference: US5098900A, “3(2H)pyridazinone, process for its preparation and anti-allergic agent containing it” (Nissan Chemical Industries Ltd., priority 1984, dated 1992)
Where two headings read alike, the source gives them in different places.

Experiments:
SRS-A = SRS-A antagonism in guinea-pig ileum (SRS-A-induced contraction); assay type: cell-based; settings: 1 min, test compound 5×10^-7 g/ml, isolated guinea-pig ileum; for inhibition at 0.5 µg/mL: Cavia porcellus
Description: (i) SRS-A antagonism in quinea-pig ileum
SRS-A antagonism was determined against the contraction induced by SRS-A in isolated guinea-pig ileum. The SRS-A was prepared in accordance with the method of Brocklehurst (J. Physiol., 151, 416, 1960) and Kohno and Parker (J. Immunol., 125, 446, 1980). Adult male guinea-pigs (200-250 g) were sensitized with chick egg albumin (EA), 100 mg subcutaneously and 100 mg intraperitoneally. Three weeks later the animals were killed by a blow on the head and lungs were perfused free of blood with Tyrode solution passed through the right ventricle. Isolated lungs were chopped into pieces (1 mm^3) by a scissors in Tyrode solution and filtrated with gauze, and then 1.0-1.3 g of chopped lung fragments were distributed into individual tubes (9.7 ml of Tyrode solution/tube). EA solution (0.3 ml) at a 3×10^-4 g/ml final concentration was added to the tubes and incubated for 20 min at 37° C., and then the supernatant was used for the SRS-A antagonism.
Assay for SRS-A antagonism was performed as follows: Ileum preparations isolated from male guinea-pig (300-400 g) were suspended under 0.5 g tension in organ baths (5 ml) containing Tyrode solution maintained at 30° C. and gassed with 95% O2 +5% CO2. After the repeated responses to histamine (10^-7 g/ml) was established, the contractile response to SRS-A (0.5 ml) was carried out in the presence of 10^-6 M atropine and 10^-6 M pyrilamine. Test compounds dissolved in 100% dimethyl sulfoxide were added to the organ baths (final concentration of 5×10^-7 g/ml) 1 min prior to the SRS-A addition, and SRS-A-induced contractions were compared with those of control (SRS-A-induced contraction before the treatment). The SRS-A antagonism (%) =[1.0 - (SRS-A-induced contraction in test compound)/control]×100

LTD4 [1] = test: Effect on bronchoconstriction induced by intravenous administration of LTD4; assay type: in vivo, guinea-pig; settings: 2 mg/kg, i.v., in Tween 80; LTD4 2 μg/kg i.v.
Description: (iv) Effect on bronchoconstriction induced by intravenous (i.v.) administration of LTD4
Bronchoconstrictions induced by i.v. administration of LTD4 in guinea-pigs (350-450 g) were measured as described in anaphylactic bronchoconstriction. Guinea-pigs were anaesthetized with urethane (1.5 g/kg) and the trachea was cannulated to record total pulmonary resistance. The right jugular vein was cannulated for the administration of the all agents. The guinea-pigs were artificially ventilated by a small respirator set at a stroke volume of 5 ml and a rate of 50 breaths per min. LTD4 (2 μg/kg)-induced bronchoconstriction was shown by the increase in air overflow volume. After the response to histamine (5 μg/kg) was checked, the first response to LTD4 was obtain-d as control. […] Inhibition (%) of the bronchoconstriction was determined as follows: Inhibition (%) =(1.0 -peak value in the second response/peak value in the first response)×100.

[2] = system: antigen-induced anaphylactic bronchoconstriction; test: Effect on anaphylactic bronchoconstriction in passively sensitized guinea-pig; assay type: in vivo; settings: 2 mg/kg, i.v.
Description: (iii) Effect on anaphylactic bronchoconstriction in passively sensitized guinea-pig
Male guinea-pigs (350-450 g) were passively sensitized with intravenous (i.v.) injection of 0.125 ml rabbit anti-EA serum (Cappel Laboratories) 1 day preceding the experiment. […] The right jugular vein was cannulated for the administration of the all agents and trachea was cannulated to record total pulmonary resistance. Guinea-pigs were artificially ventilated by a small animal respirator (Shinano, Model SN-480-7) set at a stroke volume of 4-5 ml and a rate of 50 breaths per min. […] The increase in air overflow volume was expressed as a percentage of the maximum bronchoconstriction obtained by clamping off the trachea. Following surgical preparation, the animals were pretreated with indomethacin (1.0 mg/kg, 10 min), pyrilamine (2 mg/kg, 6 min) and propranolol (0.1 mg/kg, 5 min) prior to the EA challenge (0.1 or 10 mg/kg). All test compounds, 2 mg/kg in 3% Tween 80 or 3% PEG-400, were administered 1 min before the EA challenge. Inhibition (%) of bronchoconstriction was determined as follows Inhibition (%)=(1.0% -maximum bronchoconstriction in test/% maximum bronchoconstriction in control) ×100.
In the Table, the dose of EA was 10 mg/kg, and each compound was dissolved or suspended in 3% Tween 80.
In the Table, the dose of EA was 0.1 mg/kg.
*: PEG represents polyethylene glycol400.

LTD4 [3] = test: LTD4 antagonism in isolated guinea-pig trachea (LTD4-induced contraction); assay type: cell-based; settings: Cavia porcellus, 5 min, test compound 10^-5 g/ml, LTD4 2×10^-8 g/ml
How it was run: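 Spiral strips of isolated guinea-pig trachea were held at 1 g tension in organ baths and incubated for 1 hr. After a maximal histamine (10^-4 M) response, test compounds in 100% dimethyl sulfoxide were added 5 min before LTD4 (2×10^-8 g/ml). Contraction, as percent of histamine maximum, was compared with a paired untreated control trachea to give antagonism (%).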

LTC4 = LTC4 antagonism in isolated guinea-pig trachea (LTC4-induced contraction); assay type: cell-based; settings: Cavia porcellus, 5 min, read-out: LTC4 antagonism
Description: (ii) LTC4 and LTD4 antagonisms in guinea-pig trachea
Antagonism for LTC4 and LTD4 were determined in isolated guinea-pig trachea prepared as spiral strip. 10 Tracheal preparations were suspended under 1 g tension in […] and they were incubated for 1 hr prior to use. Contractile responses to LTC4 (2×10^-8 g/ml) and LTD4 (2×10^-8 g/ml) were obtained after the maximal response to histamine (10^-4 M). Test compounds dissolved in 100% dimethyl sulfoxide were added to the organ baths (final concentration of 10^-5 g/ml) 5 min prior to LTC4 and LTD4 addition, and then contractile responses to LTC4 and LTD4 were compared with those of control which was obtained from a paired trachea in the absence of test compounds. LTC4 - and LTD4 -induced contractions were expressed as a percentage of the maximal response to histamine. The antagonism was determined as follows: Antagonism (%)=(1.0-% contraction in test/% contraction in control)×100

ddY strain male mice = test: Acute toxicity test, method-(1), oral administration; assay type: in vivo; settings: 300 mg/kg, P.O., 7 days after administration
Description: The lethal ratio was determined in ddY strain male mice (4 weeks old) at 7 days after the oral administration of test compounds.

[4] = test compound 10^-5 g/ml, LTC4 2×10^-8 g/ml, guinea-pig trachea

| Structure (SMILES) | inhibition at 0.5 µg/mL (SRS-A) [%] | Inhibition of LTD4-induced bronchoconstriction (LTD4 [1]) [%] | Inhibition of anaphylactic bronchoconstriction ([2]; EA 10 mg/kg, 3% Tween 80) [%] | SRS-A antagonism (SRS-A) [%] | inhibition at 10 µg/mL (LTD4 [3]) [%] | inhibition at 10 µg/mL (LTC4) [%] | Inhibition of anaphylactic bronchoconstriction ([2]; EA 0.1 mg/kg, Tween 80) [%] | inhibition at 10 µg/mL (LTC4; [4]) [%] | Lethal ratio (ddY strain male mice) |
| --- | --- | --- | --- | --- | --- | --- | --- | --- | --- |
| COc1ccc(CNc2cnn(C(C)(C)C)c(=O)c2Cl)cc1 [Compound No. 9] | 72 | 38 | 35 |  |  |  |  |  |  |
| CN(C)c1ccc(CNc2cnn(C(C)(C)C)c(=O)c2Cl)cc1.Cl [Compound No. 44, 4-Chloro-5-(4-dimethylaminobenzylamino)-2-t-butyl-3-(2H)pyridazinone hydrochloride] |  | 72.5 | 72 | 55 |  |  |  |  |  |
| CCCc1c(OCC(O)COc2ccc3c(=O)cc(C(=O)O)oc3c2CCC)ccc(C(C)=O)c1O (centres unmarked) [FPL-55712, reference compound] | 88 | 100 | 27 |  | 88 | 100 | 60 |  |  |
| CCOc1ccc(CNc2cnn(C(C)(C)C)c(=O)c2Cl)cc1 [Compound No. 10] | 40 |  | 31 |  |  |  |  | 50 | 0/3 |
| Cc1ccc(CNc2cnn(C(C)(C)C)c(=O)c2Cl)cc1 [Compound No. 3] | 64 | 60.6 |  |  | 50 |  |  | 42 |  |
| CCc1ccc(CNc2cnn(C(C)(C)C)c(=O)c2Cl)cc1 [Compound No. 4] | 73 |  |  |  |  |  |  | 55 | 0/3 |
